# ChEMBL document CHEMBL1201862, “PubChem BioAssay data set” (2004)
# Several values for one entry are separate records, joined by “and”; a condition that tells them apart may be missing. Equal values may be shown once.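 Values below derive from 48-hour exposures of cells grown in 96-well plates, with endpoints linearly interpolated between the two concentrations bracketing the appropriate inhibition level. GI50 = concentration required for 50% inhibition of growth.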 Activity calls are given as the source filed them. Rule as the data show it: active = GI50 up to about 1.1 µM and inactive = higher.
# Legend:
# Experiment in all cases: growth of human tumour cells (NCI), 48 h
# DMS-114 = test system: DMS-114
# DMS-273 = test system: DMS-273
# KM-20L2 = test system: KM-20L2
# LXFL 529 = test system: LXFL 529
# RXF 631 = test system: RXF 631
# SNB-78 = test system: SNB-78
# XF498 = test system: XF498
# NCI/ADR-RES = test system: NCI/ADR-RES
# HOP-18 = test system: HOP-18
Compound,GI50 (DMS-114),GI50 (DMS-273),GI50 (KM-20L2),GI50 (LXFL 529),GI50 (SNB-78),GI50 (NCI/ADR-RES),GI50 (HOP-18),further results
O=C(NC1CCCCC1)NC12CC3CC(CC(F)(C3)C1)C2,> 100 µM (inactive),> 100 µM (inactive),> 100 µM (inactive),> 100 µM (inactive),> 100 µM (inactive),,,GI50 (RXF 631): > 100 µM (inactive); GI50 (XF498): > 100 µM (inactive)
Clc1ccc(CCn2ccc3ccccc32)c(Cl)c1,,,,,,> 100 µM (inactive),,
Clc1ccc(OC2CCO2)cc1Cl (stereo not given),34.4 µM (inactive),63.1 µM (inactive),76.4 µM (inactive),70.5 µM (inactive),> 100 µM (inactive),,> 100 µM (inactive),GI50 (RXF 631): 25.1 µM (inactive)
CC1(C)[C@H](C(=O)O)N2C(=O)[C@@H](NS(=O)(=O)c3ccc([N+](=O)[O-])cc3)[C@H]2S1(=O)=O,,,,,,> 100 µM (inactive),,
N/C(=N\O)N/N=C/c1cc2c(cc1Cl)OCO2,> 100 µM (inactive),18.6 µM (inactive),35.8 µM (inactive),,> 68.2 µM (inactive),18 µM (inactive),56.2 µM (inactive),
CCNC(=S)N/N=C/c1ccccn1,,,,,,6.95 µM (inactive),,
O=C1OC(c2ccccc2)=N/C1=C\c1ccccc1,,,,,,29.2 µM (inactive) and 40.7 µM (inactive),,
O=[N+]([O-])c1ccc(C2=NOC(c3ccccc3F)N2C23CC4CC(CC(C4)C2)C3)cc1 (stereo not given),,,,,,> 100 µM (inactive),,
COc1c(CC(C)O)c2c3c(CC(C)O)c(OC)c(=O)c4c(O)cc5c(c6c(cc(O)c(c1=O)c62)OCO5)c43 (stereo not given) [CERCOSPORIN],,0.906 µM (active),0.301 µM (active),1.56 µM (inactive),2.15 µM (inactive),,2.58 µM (inactive),
O=Cc1cc(O)ccc1Br,,,,,,12.1 µM (inactive),,
COc1ccc(Nc2nc(N)c(C(=O)c3c[nH]c4ccccc34)s2)cc1,,,,,,1 µM (active),,
CCN(CC)CCn1nc2c3c(c(NCCN)ccc31)Sc1cc(O)ccc1-2,0.31 µM (active),0.417 µM (active),,0.178 µM (active),0.877 µM (active),,1.62 µM (inactive),GI50 (XF498): 0.128 µM (active)
COc1cc(=O)oc(/C=C/C=O)c1C,12.7 µM (inactive),17.2 µM (inactive),16.8 µM (inactive),17.1 µM (inactive),> 10 µM (inactive),,18 µM (inactive),GI50 (RXF 631): 14.7 µM (inactive); GI50 (XF498): 17 µM (inactive)
OC1C2CCC3C2CC(C(O)(c2ccccc2)c2ccccc2)C13 (stereo not given),,,,,,36.6 µM (inactive),,
O=C1c2ccccc2C2(c3ccc(Cl)cc3)N[C@H]3CCCC[C@@H]3N12 (stereo not given in full),,,,,,63 µM (inactive),,
CN(C)CC(CO)(CN(C)C)CN(C)C,,,,,,> 100 µM (inactive),,
COc1nc2c(N3CCCC3)nc(N3CCNCC3)nc2nc1NCc1ccccc1,,,,,,4.17 µM (inactive),,
O=C1c2ccccc2C(=O)c2[nH]c(=O)c(/C=N/Nc3ccc([N+](=O)[O-])cc3)nc21,,,,,,19.1 µM (inactive),,
Cn1nc(-c2ccccc2)c(C(=O)/C=C/c2ccccc2)c(N2CCCC2)c1=O,11.4 µM (inactive),14.7 µM (inactive),14.5 µM (inactive),11.9 µM (inactive),,,16.4 µM (inactive),GI50 (RXF 631): 29 µM (inactive); GI50 (XF498): 18.8 µM (inactive)
COC(=O)C1CCC(=O)C(Sc2ccccc2)C1 (stereo not given),68.1 µM (inactive),> 100 µM (inactive),> 100 µM (inactive),> 100 µM (inactive),> 100 µM (inactive),,> 100 µM (inactive),GI50 (XF498): > 100 µM (inactive)
Cn1c(=O)c2[nH]c(/N=N/N3CCN(CCO)CC3)nc2n(C)c1=O,,,,,,67 µM (inactive),,
CN(C)CC1CCC/C(=C\c2ccccc2)C1=O (stereo not given),,,,,,10.8 µM (inactive),,
COc1ccc2c(c1)-c1oc3ccccc3c(=O)c1CO2,,,,,,29.4 µM (inactive),,
c1ccc(C2N3CCCCC3[C@@H]3c4[nH]c5ccccc5c4CCN23)cc1 (stereo not given in full),38.7 µM (inactive),50.7 µM (inactive),> 100 µM (inactive),85.3 µM (inactive),47.5 µM (inactive),,> 100 µM (inactive),GI50 (XF498): > 100 µM (inactive)
c1ccc(/N=C(\N2CCCCC2)N(CCN2CCCCC2)c2ccccc2)cc1,,,,,,1.65 µM (inactive),,
COc1ccc(C(=O)c2c3cc(OC)c(OC)c(OC)c3cc[n+]2C)cc1,23.7 µM (inactive),,28.3 µM (inactive),24.9 µM (inactive),38.5 µM (inactive),,20.6 µM (inactive),GI50 (RXF 631): 37.4 µM (inactive); GI50 (XF498): 15 µM (inactive)
CN(c1ccc(C(=O)c2ccc(N(C)S(C)(=O)=O)cc2)cc1)S(C)(=O)=O,14.1 µM (inactive),,> 100 µM (inactive),42.4 µM (inactive),> 100 µM (inactive),,,
NN=C(S)Nc1cccc(Cl)c1,,,,,,53.5 µM (inactive),,
CC1=C2c3ccccc3N(C(=O)/C=C/C(=O)O)[C@H]2[C@H]2C(=O)OC(=O)[C@H]2C1,,,,,,> 10 µM (inactive),,
FC(F)(F)c1ccc2c(c1)nc1n2C(c2c(Cl)cccc2Cl)SC1 (stereo not given),,,,,,21.5 µM (inactive),,
